{"source": "paper PMC12500856", "about": "(Nature Communications, 2025)", "key": {"[1]": {"target": "T1, SgGouE (Streptomyces graminearus, UniProt K4HPM3)", "T1 sequence (K4HPM3 1-246)": "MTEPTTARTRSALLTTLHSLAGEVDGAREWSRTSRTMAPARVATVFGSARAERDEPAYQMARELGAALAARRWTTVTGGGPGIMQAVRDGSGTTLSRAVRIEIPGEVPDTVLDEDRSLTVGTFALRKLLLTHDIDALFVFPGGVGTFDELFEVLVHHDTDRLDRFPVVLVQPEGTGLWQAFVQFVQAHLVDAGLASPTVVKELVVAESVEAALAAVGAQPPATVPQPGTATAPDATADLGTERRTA", "experiment": "HPLC turnover assay", "assay_type": "biochemical", "conditions": "50 mM Tris-HCl pH 8.0, 1 mM CMP, 1 mM MgCl2, 30 °C (cascade)"}, "[2]": {"target": "T1, SgGouE", "experiment": "HPLC turnover assay", "assay_type": "biochemical"}, "[3]": {"target": "T2, CodA (Escherichia coli, UniProt P25524)", "T2 sequence (P25524 2-427)": "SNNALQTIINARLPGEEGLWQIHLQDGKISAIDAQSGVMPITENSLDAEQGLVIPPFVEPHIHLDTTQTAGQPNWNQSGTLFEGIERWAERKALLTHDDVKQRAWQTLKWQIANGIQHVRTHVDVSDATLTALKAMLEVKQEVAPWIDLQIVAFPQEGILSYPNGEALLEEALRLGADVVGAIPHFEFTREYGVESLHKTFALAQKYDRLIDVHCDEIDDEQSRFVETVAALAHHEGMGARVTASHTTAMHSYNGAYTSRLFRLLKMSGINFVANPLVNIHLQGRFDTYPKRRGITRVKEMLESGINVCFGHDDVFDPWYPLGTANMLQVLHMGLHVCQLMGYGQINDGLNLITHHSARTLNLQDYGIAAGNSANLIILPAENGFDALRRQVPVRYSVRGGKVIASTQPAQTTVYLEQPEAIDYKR", "experiment": "HPLC, deamination in cascade", "assay_type": "biochemical", "conditions": "50 mM Tris-HCl pH 8.0, 1 mM MgCl2, 30 °C"}, "[4]": {"target": "HDHD1 (Homo sapiens, UniProt Q08623)", "sequence (Q08623 whole entry)": "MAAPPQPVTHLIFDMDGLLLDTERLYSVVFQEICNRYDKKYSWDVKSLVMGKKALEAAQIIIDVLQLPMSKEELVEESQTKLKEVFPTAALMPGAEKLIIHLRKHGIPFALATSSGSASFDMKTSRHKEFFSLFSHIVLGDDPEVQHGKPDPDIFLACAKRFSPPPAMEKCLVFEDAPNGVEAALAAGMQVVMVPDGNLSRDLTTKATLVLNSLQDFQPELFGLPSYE", "experiment": "in vitro competition assay, dephosphorylation", "assay_type": "biochemical", "conditions": "competition with UMP"}, "[5]": {"target": "PhoA (Escherichia coli, UniProt P00634)", "sequence (P00634 22-471)": "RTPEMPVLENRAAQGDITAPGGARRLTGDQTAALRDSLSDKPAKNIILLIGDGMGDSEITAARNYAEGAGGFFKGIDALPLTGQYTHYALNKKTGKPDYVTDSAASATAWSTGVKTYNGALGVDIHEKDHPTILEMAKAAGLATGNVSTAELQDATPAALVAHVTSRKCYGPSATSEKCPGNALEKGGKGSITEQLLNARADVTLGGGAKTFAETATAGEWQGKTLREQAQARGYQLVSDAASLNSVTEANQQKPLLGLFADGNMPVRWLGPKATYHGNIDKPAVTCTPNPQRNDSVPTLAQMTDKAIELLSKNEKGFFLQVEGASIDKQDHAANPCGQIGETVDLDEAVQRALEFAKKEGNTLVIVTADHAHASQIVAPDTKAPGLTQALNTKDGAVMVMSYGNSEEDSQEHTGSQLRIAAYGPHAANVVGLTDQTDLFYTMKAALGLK", "experiment": "HPLC, dephosphorylation in cascade", "assay_type": "biochemical", "conditions": "50 mM Tris-HCl pH 8.0, 1 mM MgCl2, 30 °C"}, "[6]": {"substrate": "O=c1ccn([C@@H]2O[C@H](COP(=O)(O)O)[C@@H](O)[C@H]2O)c(=O)[nH]1", "experiment": "kinetic analysis of UMP hydrolysis", "assay_type": "biochemical, Neisseria meningitidis"}}}
{"molecule": "Nc1ccn([C@@H]2O[C@H](COP(=O)(O)O)[C@@H](O)[C@H]2O)c(=O)n1", "note": "[CMP]", "values": [{"measurement": "HPLC turnover assay", "setting": "[1]", "value": "we found that SgGouE indicates the most superior performance"}]}
{"molecule": "O=c1ccn([C@@H]2O[C@H](COP(=O)(O)O)[C@@H](O)[C@H]2O)c(=O)[nH]1", "note": "[UMP]", "values": [{"measurement": "relative efficiency", "setting": "[2]", "value": 50, "unit": "%"}]}
{"molecule": "Nc1cc[nH]c(=O)n1", "note": "[cytosine]", "values": [{"measurement": "HPLC, deamination in cascade", "setting": "[3]", "value": "cytosine can be easily deaminated by CodA (deaminase)"}]}
{"molecule": "O=c1[nH]cc([C@@H]2O[C@H](COP(=O)(O)O)[C@@H](O)[C@H]2O)c(=O)[nH]1", "note": "[ΨMP]", "values": [{"measurement": "in vitro competition assay, dephosphorylation", "setting": "[4]", "value": "HDHD1 has prominent specificity and activity against the latter substrate"}, {"measurement": "HPLC, dephosphorylation in cascade", "setting": "[5]", "value": "the phosphatase PhoA was utilized for the dephosphorylation of ΨMP for related assays"}]}
{"molecule": "NmYgdH (Neisseria meningitidis MC58) (protein) MENTNRVPEQARYDAERRQADEALAGVFPAVSIFGSARTPQNHADYAFACRLARRLSDSGIAVISGGGPGIMEAANKGAFAGKSVSVGLNIVLPHEQKPNPYQDIALRFSRFAERKAVFFRYSQAYVVMPGGFGTLDELFEILTLVQTGKVPPRPIVLVGKAFWSGLAEWINAQLLARGLISEGAVSLFAISDDEDEIVAYLSEHGLQTA", "values": [{"measurement": "Km", "setting": "[6]", "value": "11.78 ± 0.81", "unit": "mM"}, {"measurement": "kcat", "setting": "[6]", "value": "81.90 ± 2.60", "unit": "s⁻¹"}]}
